Measured values as given in patent publication US20020054872A1, “Peptides for the treatment of systemic lupus erythematosus and methods of treating systemic lupus erythematosus” (priority 1997, published 2002).
Residues, ends and D or L forms follow the SMILES beside them.

Key:
[1] = system: murine urinary immunoglobulins; experiment: Binding of murine urinary immunoglobulins, direct binding ELISA; design: species or system mouse; conditions: MRL/lpr/lpr mice, pooled urine
Procedure: (§1) Wells were coated with 10 μg/ml of the peptides, blocked with 1% BSA (bovine serum albumin) in PBS (pH 7,4), reacted with appropriately diluted serum or urine samples or monoclonal antibodies, incubated with anti-human or anti-mouse immunoglobulin enzyme conjugated to alkaline phosphatase and detected by addition of substrate (Sigma 100 Phosphatase Substrate Tablets) and color development using an Organon Teknika Microwell System spectrometer at wavelength of 405 nm.
Thus, pooled urine from at least 5 mice (either MRL/lpr/lpr or control mice, e.g. BALB/c) was added to wells coated with R38′ (5200), R18 or DNA as described above and bound 5200 assayed by ELISA.
Each group is comprised of pooled urine.

[2] = system: C72 murine anti-DNA antibody; experiment: Competitive inhibition of C72 binding to 5200; design: species or system mouse; conditions: FIG. 2, incubation with inhibiting agent
Procedure: The binding of C72 to 5200 was tested before and after incubation with 5200, R38, R18, Heparin, DNA and DNase. […] The percent inhibition is the percent reduction of the O.D. after incubation with the inhibiting agent.

[3] = system: human monoclonal anti-DNA antibody DIL 6; experiment: Direct binding ELISA of DIL6 to laminin peptides; conditions: FIGS. 3 and 4
Procedure: (§2) The C72 murine anti-DNA antibody has been derived from (NZB×NZW)F1 lupus mice by the hybridoma technique as described in Eilat D. et al J. Immunol. […] The monoclonal anti-DNA antibodies DIL6 and B3 were derived from lupus patients by hybridoma technique as described in Ehrenstein M. R. et al J. Clin. Invest. (1994) 93 1787-1799 and Ehrenstein M. R. et al Kidney Inter. (1995) 48 705-711.
as §1
(§3) The human monoclonal anti-DNA antibodies DIL 6 and B3 were derived from lupus patients by the hybridoma technique. […] In FIGS. 3 and 4, the peptides are referred to as denoted above or as follows; AS30 is R27, AS19 is R35 AS35 is R26, AS17 is R28 and AS6 is R18.

[4] = system: MRL/lpr/lpr mice; experiment: Effect on clinical course of murine SLE (survival, renal histology); assay type: in vivo, mouse; conditions: 60 μg i.p. once a week for 16 week, from 6 weeks old, FIG. 8
Procedure: To test whether R38 peptides can affect the course of SLE we have tested their effect on MRL/lpr/lpr mice disease. 60 μg of 5200 (R38′ alone or in peptide combinations, 30 μg of each) in 0.1 ml PBS, was injected i.p. to 6 week old female MLR/lpr/lpr mice once a week for 16 week and the mice were evaluated for survival (FIG. 8), and for renal histology. 50 μg of 5100 (R38) or 5300 (human R38) in 0.1 ml PBS, was injected i.p. to 6 week old MRL/lpr/lpr mice three times a week and the mice were evaluated for survival (FIG. 9), and for renal histology. Control mice received 0.1 ml phosphate buffer solution. Each test and control group contained 12-15 mice.
The survival of MRL/lpr/lpr mice treated with […], 5200 or 5300 was compared to that of PBS treated mice. […] In FIGS. 8 and 9 the time in days shown on the x axis relates to the age of the mice.

[5] = system: B3 human anti-DNA antibody; experiment: Direct binding ELISA of B3 to laminin peptides
Procedure: as §2, §1, §3
(§4) The peptides of the present invention were tested for their ability to bind directly with C72 murine anti-DNA antibodies and B3 human anti-DNA antibodies according to the method described hereinabove.

[6] = system: C72 murine anti-DNA antibody; experiment: Direct binding ELISA of C72 to laminin peptides; design: species or system mouse
Procedure: as §2, §1
The interaction of the C72 murine anti-DNA antibody with laminin peptides was analyzed by ELISA as described above. The C72 conditioned medium was diluted in PBS in various dilutions.
as §4

[7] = biological target: C72 anti-DNA antibody; experiment: Competitive inhibition of C72 binding to R38 (5100); design: species or system mouse; conditions: concentration of competitive inhibitor, ELISA
Excerpt: A competitive inhibition study compared how each of the peptides competes with R38 (5100) for binding to the C72 anti-DNA antibody. Conducted according to the methods described hereinabove, the results of the study are disclosed in Table 4 below and are further elucidated by reference to FIG. 10.

SMILES | Binding of murine urinary immunoglobulins to antigen [1] | inhibition of the binding of C72 to 5200 [2] | binding of DIL 6 [3] | survival [4] | binding of B3 ([5]; FIGS. 3 and 4) | binding of C72 murine anti-DNA antibody to laminin peptides ([6]; FIG. 1, C72 conditioned medium in various dilutions) | 50% Inhibition of C72 binding to mouse R38 (5100) [7] [µg/mL] | B3 Binding ([5]; direct binding ELISA test after two (2) hours) [O.D.] | C72 Binding ([6]; direct binding ELISA test after one (1) hour) [O.D.]
CC(C)C[C@H](NC(=O)[C@H](CC(=O)O)NC(=O)[C@H](CC(C)C)NC(=O)[C@H](CCCNC(=N)N)NC(=O)[C@@H](NC(=O)[C@H](CCCCN)NC(=O)[C@H](Cc1ccc(O)cc1)NC(=O)CNC(=O)[C@H](CCC(=O)O)NC(=O)[C@@H](N)CCCCN)C(C)C)C(=O)N[C@@H](CC(N)=O)C(=O)N[C@H](C(=O)N[C@H](C(=O)N[C@@H](CC(C)C)C(=O)N[C@@H](CCC(=O)O)C(=O)N[C@@H](Cc1ccccc1)C(=O)N[C@@H](CCCNC(=N)N)C(=O)N[C@H](C(=O)N[C@H](C(=O)N[C@@H](CO)C(=O)N[C@@H](CCCCN)C(=O)O)[C@@H](C)O)[C@@H](C)O)[C@@H](C)O)[C@@H](C)O (stereo in doubt) [Peptide 5200] | 0.26 (*) O.D. at 405 nm | inhibition | found to bind | significantly higher than that of control mice | found to bind | binding |  |  | 
CC[C@H](C)[C@H](NC(=O)[C@H](CC(N)=O)NC(=O)[C@@H](NC(=O)[C@H](CC(=O)O)NC(=O)[C@H](CO)NC(=O)[C@H](CCC(N)=O)NC(=O)[C@@H](NC(=O)[C@H](CCCCN)NC(=O)[C@H](Cc1ccc(O)cc1)NC(=O)CNC(=O)[C@H](CCC(=O)O)NC(=O)[C@@H](N)CCCCN)C(C)C)C(C)C)C(=O)N[C@H](C(=O)N[C@@H](CC(C)C)C(=O)N[C@@H](CCC(=O)O)C(=O)N[C@@H](Cc1ccccc1)C(=O)N[C@@H](CCCNC(=N)N)C(=O)N[C@H](C(=O)N[C@@H](CO)C(=O)N[C@@H](CO)C(=O)N[C@@H](CCC(N)=O)C(=O)O)[C@@H](C)O)[C@@H](C)O [Peptide 5300] (H-KEGYKVQSDVNITLEFRTSSQ-OH; N-terminus and C-terminus assumed) |  |  |  |  |  |  | 85 | 0.03 | 0.03
